The record followed here is EP1632479A2, “Piperazine derivatives useful as ccr5 antagonists” (SCHERING CORPORATION, priority 1999, dated 2000).

This test concerns the target T1, human CCR5 chemokine receptor (Homo sapiens, UniProt P51681).
T1 construct: expressed in transfected cells; host or cells: NIH 3T3 cells (murine), membranes
Nature of the test: CCR5 membrane binding assay (inhibition of RANTES binding). The conditions noted are these: 125I-RANTES; membranes from NIH 3T3 cells expressing the human CCR5 chemokine receptor; one hour incubation. As to the method: CCR5 Membrane Binding Assay:
A high throughput screen utilizing a CCR5 membrane binding assay identifies inhibitors of RANTES binding. This assay utilizes membranes prepared from NIH 3T3 cells expressing the human CCR5 chemokine receptor which have the ability to bind to RANTES, a natural ligand for the receptor. […] Compounds are serially diluted over a wide range of 0.001 ug/ml to 1 ug/ml and tested in triplicates. Reaction cocktails are harvested through glass fiber filters, and washed thoroughly.

T1 sequence (P51681 whole entry): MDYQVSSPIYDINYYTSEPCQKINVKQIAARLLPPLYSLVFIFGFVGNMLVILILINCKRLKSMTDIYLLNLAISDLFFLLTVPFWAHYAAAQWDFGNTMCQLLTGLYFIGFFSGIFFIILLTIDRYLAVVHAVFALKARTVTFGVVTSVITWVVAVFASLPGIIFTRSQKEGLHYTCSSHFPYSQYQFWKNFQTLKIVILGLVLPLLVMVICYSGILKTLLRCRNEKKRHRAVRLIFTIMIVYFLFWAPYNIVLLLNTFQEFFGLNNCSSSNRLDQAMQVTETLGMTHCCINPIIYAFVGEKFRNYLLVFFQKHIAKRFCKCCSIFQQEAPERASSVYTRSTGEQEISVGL

Regarding `Cc1cccc(C)c1C(=O)N1CCC(N2CCN(C(C)c3ccc(I)cc3)C(C)C2)CC1` (centres unmarked) [Example 11], the Ki was found to be 10.5 nM.
`Cc1cccc(C)c1C(=O)N1CCC(N2CCN(C(C)c3ccc(-c4ccccc4)cc3)C(C)C2)CC1` (centres unmarked) [Example 16] registered a Ki of 60 nM.
